Legend:
[1] = tested on: E. coli ATCC 25922; experiment: Live/Dead bacterial staining assay (AO/EB); assay type: cell-based; conditions: 0.5 h and 3 h
Experimental: Live/Dead bacterial staining assay. Exponentially growing bacteria (E. coli ATCC 25922) were collected by centrifugation at 8000 rpm for 5 min, washed with saline and diluted to OD 600 value of 0.5. The bacterial suspensions were incubated with different treatments at 37° C. for 0.5 h and 3 h, and then washed with saline and stained by acridine orange (10 μg/mL) and ethidium bromide (EB, […]) solution for 15 min. Afterward, the bacteria were collected via centrifugation, washed with saline for 2 times, resuspended in 70% glycerol and spread on glass slides. The live/dead bacteria were observed by a confocal laser scanning microscope (CLSM).

[2] = tested on: HEK 293 human embryonic kidney cells; experiment: Cell viability test (MTT cytotoxicity); assay type: cell-based; conditions: 48 h, row marked pH 7.4
Experimental: Cell viability test. Cytotoxicity of different components was tested through MTT assays. HEK 293 human embryonic kidney cells were seeded onto a 96-well plate (1×10^4 cells/well) and cultured overnight. The cells were then treated with various polymers or PDCs with serial dilutions for 48 h and their viability was measured by a standard MTT assay. Data were collected by monitoring the difference between the absorbance at 560 nm and 650 nm using a GloMax-Multi Microplate Multimode Reader (Promega, Wis., USA).

[3] = Streptomycin release kinetics (dialysis, HPLC); assay type: physicochemical
Experimental: Streptomycin release kinetics. […] The bags were put into the PBS buffers with the corresponding pH, and incubated in a 37° C. shaker. At different time intervals, 100 μL sample outside the dialysis bag was collected for HPLC analysis.

[4] = tested on: P. aeruginosa (ATCC 27853); experiment: MIC, broth microdilution; assay type: cell-based
Experimental: (§1) Bacterial strains. S. aureus Newman was kindly provided by Prof Douglas Weibel; E. coli ATCC25922, S. aureus ATCC 33591 and P. aeruginosa ATCC 27853 were kindly donated by Prof. David Andes. E. coli DH5a was purchased from Thermo Fisher. The bacteria above were grown in Mueller Hinton Broth (MHB) media (Criterion, Santa Maria, Calif., USA). M. smegmatis mc^2155 strain was kindly donated by Prof. Adel M. Talaat, and was grown in Middlebrook 7H9 broth (HiMedia, West Chester, Pa., USA).
(§2) Minimal inhibitory concentration (MIC) measurements. The MIC of the different treatments on various bacteria strains was determined using the broth microdilution method. Briefly, 100 μL of the respective broth media containing serial twofold dilutions of each compound was placed into a 96-well tissue culture plate. Each bacterial strain was taken from an exponentially growing culture and diluted to 5×10^6 CFU/mL. 10 μL of such microbial suspension was inoculated in each well of the plate, resulting in a final bacteria concentration of approximately 5×10^5 CFU/mL. The bacteria were cultured at 37° C. for 24 h and their growth were observed by reading the optical density (OD) at 600 nm. The MIC was determined as the treatment concentration at which no microbial growth was observed. Broth containing microbial cells alone was used as a positive control and broth without bacteria inoculation was used as a negative control. Each test was carried out in 3 replicates.

[5] = tested on: E. coli (DH5 alpha); experiment: MIC, broth microdilution; assay type: cell-based
Experimental: as §1, §2

[6] = tested on: S. aureus (Newman); experiment: MIC, broth microdilution; assay type: cell-based
Experimental: as §1, §2

[7] = tested on: S. aureus (MRSA ATCC33591); experiment: MIC, broth microdilution; assay type: cell-based
Experimental: as §1, §2

[8] = tested on: M. smegmatis (MC^2 155); experiment: MIC, broth microdilution; assay type: cell-based
Experimental: as §1, §2

[9] = tested on: E. coli (ATCC 25922); experiment: MIC, broth microdilution; assay type: cell-based
Experimental: as §1, §2

[10] = tested on: E. coli, MRSA and P. aeruginosa; experiment: Scanning electron microscopy (SEM) observation; assay type: cell-based; conditions: pH 6.0, 3 h
Experimental: Scanning electron microscopy (SEM) observation. Bacteria suspensions were prepared as above and treated with PDC at different pH for 3 h, washed with saline and fixed with 2.5% glutaraldehyde at 4° C. overnight. The samples were washed with Milli-Q water and dehydrated with a series of graded ethanol solutions (50%, 75%, 90%, 100%, each for 5 min). After drying for 1 day, the samples were coated with platinum and observed by SEM (Zeiss/LEO 1530).

[11] = tested on: P. aeruginosa biofilm; experiment: Biofilm inhibition assay (crystal violet); assay type: cell-based; conditions: 256 μg/mL streptomycin
Experimental: (§3) Biofilm inhibition assays. Exponentially growing bacteria were inoculated into 96 well plates (1×10^4 cell/well) containing MHB broth with 2% (v/w) glucose, incubated under stationary conditions at 37° C. for one day. After biofilm formation, the media was discarded and the plates were washed with PBS to remove the planktonic bacteria. Fresh NMB broth containing serially diluted free streptomycin or PDC were added to the plates and incubated at 37° C. for another 24 h. The media in each well was then removed, and the plates were washed carefully with PBS for 1 time. The biofilm in each well was fixed with 95% ethanol for 15 min and stained with 0.1% crystal violet for 15 min. After washing with Milli-Q water for three times, 33% v/v acetic acid (100 μL/well) was added to solubilize the crystal violet staining. OD 560 in each well was read to determine the biofilm formation. The biofilm formed as described above was also stained with acridine orange and Cy5 labeled PDC, and monitored by CLSM to observe the PDC penetration.

[12] = tested on: E. coli biofilm; experiment: Biofilm inhibition assay (crystal violet); assay type: cell-based; conditions: streptomycin concentration 16 μg/mL
Experimental: as §3

[13] = tested on: E. coli ATCC 25922; experiment: Checkerboard assay, FIC index; assay type: cell-based
Experimental: (§4) Fractional inhibitory concentration (FIC) measurement. The synergy between the cationic polymer and streptomycin was assessed by checkerboard assays. The two antibacterial components were mixed in a 96-well plate with serial two-dimensional dilutions. Bacteria were inoculated in each well of the plate and their growth, reflected by the OD600 value, were monitored. The synergy effect was evaluated by calculating the FIC index according to the formula below:
(§5) [formula] MICA^Comb and MICB^Comb indicate the MICs of the two components in combination. The interactions between the two components are defined according to standard criteria of considering FIC≤0.5 as synergistic; 0.5<FIC≤1 as additive; 1<FIC≤4 as indifference; and FIC>4 as antagonism.

[14] = tested on: methicillin-resistant S. aureus (MRSA, ATCC 33591); experiment: Checkerboard assay, FIC index; assay type: cell-based
Experimental: as §4, §5

[15] = tested on: P. aeruginosa ATCC 27853; experiment: Checkerboard assay, FIC index; assay type: cell-based
Experimental: as §4, §5

Hex-Cys-Cys-DET-strep-DMA [Neutralized PDC]
bactericidal effect / EB staining, in words [1]: much delayed and pH-dependent bactericidal effect | HEK293 IC50 [2]: >2000 µg/mL | streptomycin release ([3]; pH 6.0, within 48 h): about 70% | streptomycin release ([3]; pH 7.4, at 48 h): about 20% | MIC P. aeruginosa (ATCC 27853) ([4]; pH 6.0): 40 µg/mL | MIC P. aeruginosa (ATCC 27853) ([4]; pH 7.4): 160 µg/mL | MIC E. coli (DH5 alpha) ([5]; pH 6.0): 20 µg/mL | MIC E. coli (DH5 alpha) ([5]; pH 7.4): 80 µg/mL | MIC S. aureus (Newman) ([6]; pH 6.0): 20 µg/mL | MIC S. aureus (Newman) ([6]; pH 7.4): 80 µg/mL | MIC S. aureus (MRSA ATCC33591) ([7]; pH 6.0): 40 µg/mL | MIC S. aureus (MRSA ATCC33591) ([7]; pH 7.4): 160 µg/mL | MIC M. smegmatis (MC^2 155) ([8]; pH 6.0): 2.5 µg/mL | MIC M. smegmatis (MC^2 155) ([8]; pH 7.4): 20 µg/mL | MIC E. coli (ATCC 25922) ([9]; pH 6.0): 20 µg/mL | MIC E. coli (ATCC 25922) ([9]; pH 7.4): 80 µg/mL | bacterial membrane morphology (SEM), in words [10]: severe membrane disruption and deformation | biofilm reduced / removed [11]: 96% | biofilm eliminated [12]: 75% | FICI of the two components in the PDC (tethered together) [13]: 0.362 | FICI of the two components in the PDC (tethered together) [14]: 0.475 | FICI of the two components in the PDC (tethered together) [15]: 0.306
